Key:
[1] = system: KRAS mutation CRC cells LoVo; test: Plate clone formation; format: cell-based, human; details: FIGS. 8A-B
Experimental: (§1) 1) Cell inoculation: the culture solution was absorbed and discarded to collect the cells, then the cells were suspended in a treatment condition culture solution, and counted for 3 times to obtain a mean value, then the concentration of a cell suspension was adjusted to 1×10^3/ml. 2.5 ml treatment condition culture solution was respectively added to per well of a 6-well culture plate; 0.5 ml cell suspension (namely, 500 cells per well) was added per well with a final volume of 3 ml. Note that the culture plate was shaken repeatedly according to a cross-shaped direction during inoculation, such that the cells were distributed evenly as much as possible.
(§2) 3) Clone staining: the culture was stopped when the cells formed visible clones (the number of cloned cells per well was about 50-150) by the naked eyes. The culture medium was discarded, and the clones were soaked and washed for twice with PBS carefully, 1.5 ml 4% paraformaldehyde was respectively added per well for immobilization for 15 min; then the immobilization solution was discarded, and the clones were cleaned with running water slowly; 1.5 ml crystal violet working solution was added per well, standing at room temperature, and the clones were stained for 30 min, and the staining solution was cleaned with running water slowly, then the remaining clones were dried in a draught cupboard. […]

[2] = system: KRAS wildtype CRC cells SW48; test: Plate clone formation; format: cell-based, human; details: FIGS. 8A-B
Experimental: as §1, §2

In the case of `CN(C)C(=N)N=C(N)N` [metformin], the clone formation [1] is reported as “inhibits the clone formation” and the clone formation [2] is reported as “no obvious effect”.

Source: patent publication US20220125877A1, “METHOD FOR TREATING COLORECTAL CANCER” (SUN YAT-SEN UNIVERSITY, priority 2019, published 2022)
